Experimental data published in ChEMBL document CHEMBL3400086, “Thieno[2,3-b]pyridines as negative allosteric modulators of metabotropic GluR5 receptors: Lead optimization” (Bioorg Med Chem Lett, 2015).

Tests used:
[1] = biological target: Metabotropic glutamate receptor 5 (Rattus norvegicus) (UniProt P31424); assay: Displacement of [3H]-M-MPEP from rat cerebrocortical mGluR5 receptor at 1 uM
[2] = system: Liver microsome; assay: Intrinsic clearance in human liver microsomes measured per gram of tissue at 2.5 uM; type: ADME
[3] = system: Liver microsome; assay: Intrinsic clearance in Wistar rat liver microsomes measured per gram of tissue at 2.5 uM; type: ADME
[4] = biological target: T1, Metabotropic glutamate receptor 5 (Rattus norvegicus, UniProt P31424); assay: Negative allosteric modulation of mGlu5 receptor in primary E17 rat embryo neuron assessed as ca2+ level by fluo-4/AM assay
[5] = system: Rattus norvegicus; assay: Anxiolytic effect in po dosed Wistar male rat assessed as increase in number of accepted shocks by vogel punished drinking test; type: functional; conditions: read-out: MED
[6] = biological target: T1, Metabotropic glutamate receptor 5; assay: Displacement of [3H]-M-MPEP from rat cerebrocortical mGluR5 receptor
[7] = system: Rattus norvegicus; assay: Anxiolytic effect in ip dosed Wistar male rat assessed as increase in number of accepted shocks by vogel punished drinking test; type: functional

T1 sequence (P31424 whole entry): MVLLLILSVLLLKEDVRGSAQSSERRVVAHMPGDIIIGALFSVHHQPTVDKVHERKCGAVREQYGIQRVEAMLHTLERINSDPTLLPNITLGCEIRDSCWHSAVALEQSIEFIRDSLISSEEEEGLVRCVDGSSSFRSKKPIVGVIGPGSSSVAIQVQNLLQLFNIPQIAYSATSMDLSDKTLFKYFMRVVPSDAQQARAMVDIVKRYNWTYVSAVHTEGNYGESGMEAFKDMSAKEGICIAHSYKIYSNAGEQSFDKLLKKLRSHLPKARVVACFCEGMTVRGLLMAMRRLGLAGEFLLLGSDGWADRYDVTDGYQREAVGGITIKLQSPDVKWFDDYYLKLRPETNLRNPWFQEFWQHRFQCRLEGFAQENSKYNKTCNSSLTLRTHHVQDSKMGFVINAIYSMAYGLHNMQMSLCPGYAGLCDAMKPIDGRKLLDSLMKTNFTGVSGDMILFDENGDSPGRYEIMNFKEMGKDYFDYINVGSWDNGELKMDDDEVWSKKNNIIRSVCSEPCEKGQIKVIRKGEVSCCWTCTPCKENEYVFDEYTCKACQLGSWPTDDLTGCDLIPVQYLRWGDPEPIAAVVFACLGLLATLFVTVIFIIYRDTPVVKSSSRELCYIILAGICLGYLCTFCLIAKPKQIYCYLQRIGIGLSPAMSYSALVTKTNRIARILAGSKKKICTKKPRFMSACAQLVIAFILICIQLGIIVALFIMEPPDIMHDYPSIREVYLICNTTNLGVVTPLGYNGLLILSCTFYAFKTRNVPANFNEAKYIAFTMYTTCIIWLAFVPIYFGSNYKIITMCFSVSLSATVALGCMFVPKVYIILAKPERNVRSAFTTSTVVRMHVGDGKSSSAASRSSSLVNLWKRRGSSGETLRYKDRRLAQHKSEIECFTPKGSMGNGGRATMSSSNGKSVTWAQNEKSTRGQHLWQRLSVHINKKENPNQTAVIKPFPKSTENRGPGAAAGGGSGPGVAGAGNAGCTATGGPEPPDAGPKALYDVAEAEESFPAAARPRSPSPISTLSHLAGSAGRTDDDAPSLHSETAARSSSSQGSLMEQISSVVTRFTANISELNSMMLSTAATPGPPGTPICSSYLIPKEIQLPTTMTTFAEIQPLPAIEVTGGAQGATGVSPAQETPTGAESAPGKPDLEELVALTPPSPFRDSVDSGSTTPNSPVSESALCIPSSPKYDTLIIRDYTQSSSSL
Metabotropic glutamate receptor 5 (Rattus norvegicus), sequence (P31424 21-1203 limits assumed): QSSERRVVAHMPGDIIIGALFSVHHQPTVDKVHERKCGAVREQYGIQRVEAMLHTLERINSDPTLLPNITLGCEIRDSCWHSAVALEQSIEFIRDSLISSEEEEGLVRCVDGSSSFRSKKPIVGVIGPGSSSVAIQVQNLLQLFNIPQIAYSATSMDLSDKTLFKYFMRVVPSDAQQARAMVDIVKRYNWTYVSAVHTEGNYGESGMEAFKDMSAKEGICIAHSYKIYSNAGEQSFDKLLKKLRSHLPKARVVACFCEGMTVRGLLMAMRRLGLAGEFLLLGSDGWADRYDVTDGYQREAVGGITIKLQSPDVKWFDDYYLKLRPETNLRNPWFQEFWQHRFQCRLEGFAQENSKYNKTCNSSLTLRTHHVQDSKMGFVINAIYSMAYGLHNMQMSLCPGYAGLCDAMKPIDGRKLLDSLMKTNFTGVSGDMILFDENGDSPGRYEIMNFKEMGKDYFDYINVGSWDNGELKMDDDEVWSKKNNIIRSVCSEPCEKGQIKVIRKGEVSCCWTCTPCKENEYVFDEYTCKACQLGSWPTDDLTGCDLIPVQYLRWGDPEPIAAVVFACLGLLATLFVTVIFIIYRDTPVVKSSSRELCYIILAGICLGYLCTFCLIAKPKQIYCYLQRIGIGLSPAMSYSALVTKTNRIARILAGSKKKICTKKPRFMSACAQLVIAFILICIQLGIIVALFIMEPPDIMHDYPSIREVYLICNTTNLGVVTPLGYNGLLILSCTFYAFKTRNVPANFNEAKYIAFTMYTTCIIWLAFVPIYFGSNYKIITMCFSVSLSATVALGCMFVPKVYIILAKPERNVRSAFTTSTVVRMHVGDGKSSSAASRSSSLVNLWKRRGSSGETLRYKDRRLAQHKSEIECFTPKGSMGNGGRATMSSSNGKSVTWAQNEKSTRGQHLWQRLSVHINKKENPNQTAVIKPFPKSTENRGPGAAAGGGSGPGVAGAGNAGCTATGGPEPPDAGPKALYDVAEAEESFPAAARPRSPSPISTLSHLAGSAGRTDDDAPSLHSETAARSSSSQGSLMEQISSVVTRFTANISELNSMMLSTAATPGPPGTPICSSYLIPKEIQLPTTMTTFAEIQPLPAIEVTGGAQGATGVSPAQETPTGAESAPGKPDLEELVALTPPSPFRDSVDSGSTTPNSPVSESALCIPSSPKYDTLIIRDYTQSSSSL

SMILES	inhibition [1]	CLH [2]	CLH [3]	IC50 [4]	Ki [6]	further results
O=S(=O)(c1cccs1)c1sc2ncccc2c1-c1ccc(Cl)cc1	34%	–	–	–	–	–
O=S(=O)(c1sc2ncccc2c1-c1ccc(Cl)cc1)C1CCCCC1	14%	–	–	–	–	–
Cc1nc(C)c(S(=O)(=O)c2sc3ncccc3c2-c2ccc(Cl)cc2)s1	35%	–	–	–	–	–
N#Cc1cc(F)cc(S(=O)(=O)c2sc3ncc(N)cc3c2-c2cccc(F)c2)c1	–	0.9 mL/min/g	1.2 mL/min/g	5.5 nM	–	minimal effective dose [5]: 3 mg/kg
O=S(=O)(Cc1ccccc1)c1sc2ncccc2c1-c1ccc(Cl)cc1	25%	–	–	–	–	–
N#Cc1ccc(-c2c(S(=O)(=O)c3cccc(C#N)c3)sc3ncccc23)cc1	62%	0.1 mL/min/g	2.9 mL/min/g	–	–	–
CCCCS(=O)(=O)c1sc2ncccc2c1-c1ccc(Cl)cc1	30%	–	–	–	–	–
COc1ccc2c(-c3ccc(Cl)cc3)c(S(=O)(=O)c3cccc(C#N)c3)sc2n1	50%	0.3 mL/min/g	4.2 mL/min/g	–	–	–
CC1CCN(S(=O)(=O)c2sc3ncccc3c2-c2ccc(Cl)cc2)CC1	39%	–	–	–	–	–
N#Cc1cc(F)cc(S(=O)(=O)c2sc3ncccc3c2-c2ccc(F)cc2)c1	–	2.1 mL/min/g	2.1 mL/min/g	10.6 nM	2.4 nM	–
N#Cc1cccc(S(=O)(=O)c2sc3nc(O)ccc3c2-c2ccc(Cl)cc2)c1	–	0.4 mL/min/g	1.1 mL/min/g	46 nM	39 nM	–
Cc1cc(C)c(S(=O)(=O)c2sc3ncccc3c2-c2ccc(Cl)cc2)c(C)c1	0%	–	–	–	–	–
N#Cc1cc(F)cc(S(=O)(=O)c2sc3ncccc3c2-c2cnccc2F)c1	–	0.9 mL/min/g	1 mL/min/g	22 nM	13.6 nM	–
N#Cc1cc(F)cc(S(=O)(=O)c2sc3ncc(N)cc3c2-c2ccc(F)cc2)c1	–	0.8 mL/min/g	1.2 mL/min/g	6.4 nM	2.8 nM	–
N#Cc1cccc(S(=O)(=O)c2sc3nc(Cl)ccc3c2-c2ccc(Cl)cc2)c1	19%	1.4 mL/min/g	3.6 mL/min/g	–	–	–
N#Cc1cc(F)cc(S(=O)(=O)c2sc3ncccc3c2-c2cnccc2Cl)c1	–	1.1 mL/min/g	1 mL/min/g	34 nM	9.3 nM	–
N#Cc1cc(F)cc(S(=O)(=O)c2sc3nc(F)ccc3c2-c2cccc(F)c2)c1	–	0.6 mL/min/g	2.9 mL/min/g	4.9 nM	2.5 nM	–
Cc1noc(C)c1S(=O)(=O)c1sc2ncccc2c1-c1ccc(Cl)cc1	0%	–	–	–	–	–

Now from value to compound, other results behind:

inhibition [1]	CLH [2]	CLH [3]	IC50 [4]	Ki [6]	SMILES	further results
6%	–	–	–	–	CC(=O)Nc1ccc(S(=O)(=O)c2sc3ncccc3c2-c2ccc(Cl)cc2)cc1	–
32%	–	–	–	–	O=S(=O)(c1ccccc1Cl)c1sc2ncccc2c1-c1ccc(Cl)cc1	–
13%	0.4 mL/min/g	2.4 mL/min/g	–	–	CS(=O)(=O)c1ccc(-c2c(S(=O)(=O)c3ccc(Cl)cc3)sc3ncccc23)cc1	–
2%	1.4 mL/min/g	3.7 mL/min/g	–	–	CN(C)c1ccc2c(-c3ccc(Cl)cc3)c(S(=O)(=O)c3ccc(Cl)cc3)sc2n1	–
34%	0.01 mL/min/g	0.7 mL/min/g	–	–	O=S(=O)(c1ccc(Cl)cc1)c1sc2nccc(O)c2c1-c1ccc(Cl)cc1	–
11%	3 mL/min/g	9.3 mL/min/g	–	–	O=S(=O)(c1ccc(Cl)cc1)c1sc2ncccc2c1Oc1ccc(Cl)cc1	–
20%	–	–	–	–	O=S(=O)(Nc1ccc(Cl)cc1)c1sc2ncccc2c1-c1ccc(Cl)cc1	–
30%	–	–	–	–	O=S(=O)(NCc1ccc(Cl)cc1)c1sc2ncccc2c1-c1ccc(Cl)cc1	–
–	2.4 mL/min/g	4.1 mL/min/g	135 nM	51 nM	O=S(=O)(c1ccc(Cl)cc1)c1sc2ncccc2c1-c1ccccc1F	–
–	2.4 mL/min/g	12.8 mL/min/g	30 nM	4.1 nM	N#Cc1cccc(S(=O)(=O)c2sc3ncccc3c2-c2ccc(Cl)cc2)c1	–
–	1.6 mL/min/g	0.7 mL/min/g	77 nM	19.1 nM	Nc1cnc2sc(S(=O)(=O)c3ccc(Cl)cc3)c(-c3ccc(Cl)cc3)c2c1	–
–	3.9 mL/min/g	15.7 mL/min/g	111 nM	21 nM	Cc1ccc(-c2c(S(=O)(=O)c3ccc(Cl)cc3)sc3ncccc23)cc1	–
–	1.6 mL/min/g	4.2 mL/min/g	–	–	O=S(=O)(c1ccc(Cl)cc1)c1sc2ncccc2c1-c1ccc(Cl)cc1	Activity [7]: Dose-dependent effect; minimal effective dose ([7]; read-out: MED): 40 mg/kg
–	2.8 mL/min/g	3.7 mL/min/g	172 nM	64 nM	O=S(=O)(c1ccc(Cl)cc1)c1sc2ncccc2c1-c1ccccc1Cl	–
–	0.1 mL/min/g	3.8 mL/min/g	172 nM	26 nM	O=S(=O)(c1ccc(Cl)cc1)c1sc2nc(F)ccc2c1-c1ccc(Cl)cc1	–
20%	1 mL/min/g	6.5 mL/min/g	–	–	COc1ccnc2sc(S(=O)(=O)c3ccc(Cl)cc3)c(-c3ccc(Cl)cc3)c12	–
–	0.01 mL/min/g	3.4 mL/min/g	1030 nM	93 nM	O=S(=O)(c1ccc(Cl)cc1)c1sc2nc(Cl)ccc2c1-c1ccc(Cl)cc1	–
